These results are taken from US20260242738A1, “ALK5 INHIBITORS FOR EFFICIENT DERIVATION OF MESENCHYMAL STEM CELLS FROM EMBRYONIC STEM CELLS” (SCRIPPS HEALTH, priority 2022, published 2026).

Assay type in all cases: cell-based, human
Test [1] concerns H9 ESC. The test is described as follows: Flow cytometry of MSC surface markers after ESC to MSC differentiation with ALK-5 inhibitor. The following applies: H9 ES-MSC. On the procedure: An overview of the differentiation process is provided in FIG. 1, panel K. To create cell clusters or embryoid bodies of uniform size, ESCs were removed from CellStart culture using Accutase® for 2-5 minutes until single cells were observed. […] After 24 hours, the cell clusters were suspended at 2.5-3×10^5 cells per ml in ultra-low adherent 6 well plates (Corning) in StemPro-34 serum free medium (ThermoFisher) supplemented with 2 mM L-glutamine (ThermoFisher Scientific), 50 μg/ml Ascorbic acid (Stemcell Technologies, Vancouver, Canada) and 1.8 μl/ml ITS-G (100× Insulin-Transferrin-Selenium; ThermoFisher); termed as “complete SP-34 medium”.
The medium was changed every 2 days by removing cell clusters into 15 ml sterile tubes and permitted to gravity settle for 10 minutes at room temperature. Most of the media was removed using a pipette to leave approximately 300-500 μl of medium. Freshly made medium (with the appropriate ALK5 inhibitor or DMSO) was replaced at the same volumes and well number into new ultra-low adherent plates.
After treatment with the appropriate ALK5 inhibitor, the cell clusters were removed by gravity settling and suspended in complete SP-34 medium supplemented with bFGF 20 ng/ml (without any ALK-5 inhibitor or DMSO) and transferred onto fibronectin (FN) coated (10 μg/ml; Fibronectin from human plasma, Sigma-Aldrich, St. Louis, MO) T75 cm^2 flasks (passage zero (P0)). The emerging cells and remaining cell clusters were exposed to Accutase® for 5-10 minutes, gently triturated and counted. The cells were seeded at […] in T75 FN coated flask (P1) and medium changed every 3-4 days until 80-90% confluence. At this point, the cells were detached using Accutase® for continued culture, screened for surface marker phenotype characterization (flow cytometry), placed into 3D cultures to assess chondrogenic differentiation capacity, or preserved in liquid nitrogen.
Cells were detached using Accutase®, washed and suspended in FACS buffer at a concentration of 0.2×10^6 cells per 100 μl. A panel of CD molecules were used, each with the following fluorochromes: CD34-FITC, CD45-BV510, CD73-APC (BioLegend, San Diego, California) CD90-PE-Cy7, and CD105-BV650 (BD Biosciences, Franklin Lakes, New Jersey). Matching isotype control IgGs with the same fluorochrome conjugates were used for background gating. […] Data was acquired with the Novocyte flow cytometer (ACEA Biosciences Inc. San Diego, CA) and analyzed using FlowJo software (version 10, FlowJo, LLC, Ashland, OR) to determine percentage positive signal for each molecule relative to isotype background non-specific signal controls.
For orientation: Flow cytometry measures light scatter and fluorescence of single cells or particles in a stream.

Test [2] concerns H9 ESC. The test is described as follows: Gene expression profiling of ES-MSC relative to undifferentiated ESC. The method, then:
An overview of the differentiation process is provided in FIG. 1, panel K. To create cell clusters or embryoid bodies of uniform size, ESCs were removed from CellStart culture using Accutase® for 2-5 minutes until single cells were observed. Cells (2.5-3×10^5 cells per ml) were suspended in StemPro human ESC serum free medium (ThermoFisher) with 10 μM Y-27632 (EMD Chemicals, Gibbstown, NJ) and 40 ng/ml FGF (Life Technologies, Carlsbad, CA) in a 125 ml spinner culture flask (Corning Inc., Corning, NY) on a magnetic stirrer (CimarecTM Biosystem Slow-Speed Stirrer, ThermoFisher) at 70 rpm for 24 hours at 37° C. with 5% CO2 to form small cell clusters (minimum total cells was 7.5×10^6 in 30 ml). After 24 hours, the cell clusters were suspended at 2.5-3×10^5 cells per ml in ultra-low adherent 6 well plates (Corning) in […] free medium (ThermoFisher) supplemented with 2 mM L-glutamine (ThermoFisher Scientific), 50 μg/ml Ascorbic acid (Stemcell Technologies, Vancouver, Canada) and 1.8 μl/ml ITS-G (100× Insulin-Transferrin-Selenium; ThermoFisher); termed as “complete SP-34 medium”. […] Total RNA was extracted from using the RNeasy kit as recommended by the manufacturer (QIAGEN, Valencia, CA). The High-Capacity cDNA Reverse Transcription Kit (Applied Biosystems, Foster City, California) kit was used to make cDNA and the following verified primer/probe assays were purchased from Applied Biosystems. Expression of the following genes was quantified POU5F1/OCT4 and SOX2 (for pluripotency); FOXA1 and SOX17 (for endoderm); NES and PAX6 (for ectoderm); NKX2-5, MSX1, NCAM1, and SOX9 (for mesoderm); ITGB1/CD29 (for MSC phenotype); and COL1A1, COL2A1, COL10A1, COMP, ACAN, and SOX9 and RUNX2 (for chondrogenesis). Gene expression was normalized to GAPDH as previously reported. Undifferentiated ESC served as a baseline for relative changes in gene expression in differentiated ES-MSC cells. Differentiated ES-MSC cells in monolayer served as baseline for changes in gene expression in pellets or hydrogel constructs.

The test system of test [3] is H9 ES-MSC. The test is described as follows: Chondrogenic gene expression of pellets relative to monolayer controls. On the procedure: Monolayer-expanded ES-MSC (passage 2-5) were detached using Accutase® and 0.5×10^6 cells in 0.5 ml of chondrogenic medium were centrifuged at 900 rpm (~770 G) for 5 minutes to form high-density pellets. At least 5-6 pellets, for each ES-MSC condition, were cultured in serum-free chondrogenic medium consisting of Dulbecco's Modified Eagle Medium (Mediatech Inc., Manassas, VA), 1×ITS supplement (Sigma-Aldrich, St. Louis, MO), 100 nM Dexamethasone (Sigma), 1.25 mg/ml human serum albumin (Bayer, Leverkusen, Germany), 100 μM ascorbic acid 2-phosphate (Sigma), 1% penicillin/streptomycin/gentamycin (PSG, Gibco, Carlsbad, CA), and 10 ng/ml TGFβ3 (PeproTech, Rocky Hill, NJ). Pellets for ex vivo implantation were cultured for 3 days before implantation; pellets for histologic or gene expression analysis were maintained in culture for 3 weeks with media changes every 3 to 4 days.
Total RNA was extracted from using the RNeasy kit as recommended by the manufacturer (QIAGEN, Valencia, CA). […] Expression of the following genes was quantified POU5F1/OCT4 and SOX2 (for pluripotency); FOXA1 and SOX17 (for endoderm); NES and PAX6 (for ectoderm); NKX2-5, MSX1, NCAM1, and SOX9 (for mesoderm); ITGB1/CD29 (for MSC phenotype); and COL1A1, COL2A1, COL10A1, COMP, ACAN, and SOX9 and RUNX2 (for chondrogenesis). […]

The mark [4] stands for this setting: ES-MSC relative to undifferentiated ESC.

`NC(=O)c1ccc(-c2nc(-c3ccc4c(c3)OCO4)c(-c3ccccn3)[nH]2)cc1` [SB431542]: in test [1] (SB431542 10 μM 10 days, N=5), the CD73 positive cells came out at 99±1%, the CD90 positive cells stood at 99±1% and the CD105 positive cells is on record as 94±4%. Besides, the “triple positive for CD73, CD90 and CD105” value in test [1] (co-expression analysis) is reported as 92±9%. In test [2] (setting [4]), the “expression of SOX9 and COL2A1 (chondroprogenitor phenotype)” value is “Increased expression”; the “expression of mesoderm specific markers (NCAM1, MSX1, NKX2-5) and MSC marker (ITGB1)” value is on record as “significantly upregulated”. Moreover, in test [2] (H9 ES-MSC relative to undifferentiated ESC), the “expression of pluripotent markers POU5F1 (OCT4) and SOX2” value is given as “significantly down regulated”. In addition, in test [3], the “chondrogenic genes (COL2A1, ACAN, COMP and SOX9) relative to monolayer controls” value was “higher levels”.
